Laboratory results reported in patent publication US20110076283A1, “METHOD FOR PREDICTING AND DIAGNOSING BRAIN TUMOR” (Universite De Lausanne, priority 2008, published 2011).

What was measured:
glioblastoma [1] = settings: in conjunction with TMZ/RT→TMZ; patients with a methylated MGMT gene promoter; cited from earlier work
glioblastoma [2] = test: Multivariate Cox proportional hazards model of the treatment effect on survival (chemoradiotherapy versus radiotherapy alone) in glioblastoma patients; assay type: in vivo, human; settings: MGMT-methylated patients, multivariate Cox model N = 68
Protocol: Gene expression profiles were established from 80 frozen GBM samples obtained from 76 patients, comprising 70 tumors from initial surgery, and 10 samples resected at recurrence, and from four non-neoplastic brain tissue samples. All patients were treated within a phase II, or a randomized phase III trial {Stupp, 2005 #2126} and provided written informed consent for molecular studies of their tumor. The protocol was approved by the ethics committee at each center. Sixty-eight patients with complete molecular and clinical information were included in survival analysis, with a median age of 51 years (range: 26-70 yrs) at enrollment. Thereof, 42 received TMZ/RT→TMZ, while 26 were randomized to RT only. Second-line therapy frequently involved alkylating agents including TMZ. The validation set comprised 76 independent patients of the EORTC/NCIC-study (Stupp et al., 2005), 39 randomized to TMZ/RT→TMZ, and 37 to RT (median age 54 yrs, range 25-69 yrs), whose GBM were available on a tissue microarray. There was no difference in survival as compared to the general trial population, neither in the test population, nor the validation set (P>0.2).
For each covariate, the hazards ratio, its 95% confidence interval and the associated Wald p-value were examined The Benjamini Hochberg procedure ^s was applied as multiple testing correction method to convert p-values into estimated false discovery rates (FDR). The hazards ratio for a gene (or the mean of a cluster) were standardized by referring them to a variation corresponding to an interquartile range, in order to obtain an interpretable value, for microarray as well as for real-time PCR data. Therefore, the interpretation of an estimated hazard ratio of 1.5 is that the hazard rate increases by 50 percent for an increase of one interquartile range of the log-scale gene expression, independently of the expression level at which it is calculated.
The log-hazard function was defined as:
g(t,X,TMZ,MGMT,age,β)=ln [h0(t)]+β1X+β2TMZ+β3MGMT+β4age+β5(X*TMZ)+β6(TMZ*MGMT) […]

glioblastoma [3] = settings: glioblastoma patients; in particular with epigenetically silenced MGMT gene; cited from earlier work

| Structure (SMILES) | anti-tumor activity (glioblastoma [1]) | Estimated Hazard Ratios (HR) for Treatment Effect (glioblastoma [2]; G98 expression level 1st quartile) | Estimated Hazard Ratios (HR) for Treatment Effect (glioblastoma [2]; G98 expression level 3rd quartile) | Estimated Hazard Ratios (HR) for Treatment Effect (glioblastoma [2]; G98 expression level median) | survival (glioblastoma [3]) |
| --- | --- | --- | --- | --- | --- |
| CC(C)[C@H]1C(=O)N[C@@H](CCCN=C(N)N)C(=O)NCC(=O)N[C@@H](CC(=O)O)C(=O)N[C@H](Cc2ccccc2)C(=O)N1C [cilengitide] | increased anti-tumor activity | – | – | – | – |
| Cn1nnc2c(C(N)=O)ncn2c1=O [TMZ/RT→TMZ, temozolomide] | – | 0.13 | 0.47 | 0.25 | significantly prolong survival |
